Columns and labels:
[1] = system: optic nerve axons; assay: Optic nerve transection, optic nerve axon density (RT97 neurofilament immunohistochemistry); format: in vivo, Sprague Dawley rats; conditions: for % surviving RGCs with ON axons / ON head area (% sham) / increased ON axon density / ON axon Count / ON Axon density: 90 days after ONT; for increased ON axon density: adjusted for optic nerve diameter; for ON axon Count: axonal density multiplied by ON area; for ON Axon density: mean + SEM in 200 μm × 200 μm region
Description: All eyes and optic nerves stumps were removed.
^2 mean density + SEM of RT97 neurofilament antibody labeled optic
nerve (ON) axons in 200 μm × 200 μm region of interest
^3 adjusted for optic nerve diameter
^4 calculated by multiplying axonal density by ON area

[2] = biological target: FKBP12 (Homo sapiens, UniProt P62942); assay: Inhibition of peptidyl-prolyl isomerase (rotamase) activity of FKBP, chymotrypsin-coupled assay; format: biochemical; conditions: Table V; read-out: Ki rotomase
Description: The inhibition of the prolyl peptidyl cis-trans isomerase activity of FKBP may be measured as an indicator of this affinity.
Inhibition of the peptidyl-prolyl isomerase (rotamase) activity of the compounds used in the inventive methods and pharmaceutical compositions can be evaluated by known methods described in the literature (Harding et al., Nature, 1989, 341:758-760; Holt et al. J. Am. Chem. Soc., 115:9923-9938). These values are obtained as apparent Ki 's and are presented for representative compounds in TABLE B.
The cis-trans isomerization of an alanine-proline bond in a model substrate, N-succinyl-Ala-Ala-Pro-Phe-p-nitroanilide, is monitored spectrophotometrically in a chymotrypsin-coupled assay, which releases para-nitroanilide from the trans form of the substrate. The inhibition of this reaction caused by the addition of different concentrations of inhibitor is determined, and the data is analyzed as a change in first-order rate constant as a function of inhibitor concentration to yield the apparent Ki values.
In a plastic cuvette are added […] of ice cold assay buffer (25 mM HEPES, pH 7.8, 100 mM NaCl), 10 mL of FKBP (2.5 mM in 10 mM Tris-Cl pH 7.5, 100 mM NaCl, 1 mM dithiothreitol), 25 mL of chymotrypsin (50 mg/ml in 1 mM HCl) and […] of test compound at various concentrations in dimethyl sulfoxide. The reaction is initiated by the addition of 5 mL of substrate (succinyl-Ala-Phe-Pro-Phe-para-nitroanilide, 5 mg/mL in 2.35 mM LiCl in trifluoroethanol).
The absorbance at 390 nm versus time is monitored for 90 seconds using a spectrophotometer and the rate constants are determined from the absorbance versus time data files.

[3] = system: central and peripheral nervous systems; conditions: Proc. Nat'l. Acad. Sci. USA 94, 2019-2024, 1997; cited from earlier work
[4] = Clearance (comments of Table V); format: in vitro ADME
[5] = system: peripheral nerve; assay: Peripheral nerve regeneration; conditions: in vivo
[6] = system: retinal ganglion cells; assay: Retinal ischemia, retinal ganglion cell degeneration; format: in vivo, adult rats; conditions: 10 mg/kg, s.c. 1 hour prior to ischemia and 10 mg/kg/day next four days; 28 days
Description: Retinal ganglion cells were retrogradely labeled in adult rats by bilateral injection of fluorogold in their lateral geniculate nuclei. Labeled ganglion cells in the normal rat retina appear as white profiles against the dark background (FIG. 1A). Complete retinal ischemia was produced by infusing normal saline solution into the retinal vitreous cavity of each eye until the intraocular pressure exceeded arterial blood pressure. 28 days after the ischemic episode extensive degeneration of retinal ganglion cell was evidenced by massive reduction in the density of fluorogold labeled cells (FIG. 1B).

FKBP12, sequence (P62942 whole entry): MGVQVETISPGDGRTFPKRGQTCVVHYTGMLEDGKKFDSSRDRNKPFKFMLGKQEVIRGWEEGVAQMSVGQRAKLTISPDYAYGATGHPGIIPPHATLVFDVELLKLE

CCC(C)(C)C(=O)C(=O)N1CCC[C@H]1C(=O)OCCCc1cccnc1 [GPI 1046]
% surviving RGCs with ON axons ([1]; 14 days treatment): 33.6%
ON head area (% sham) ([1]; 14 days treatment): 76%
increased ON axon density ([1]; 14 days treatment): 1.5 X
ON axon Count ([1]; 14 days treatment): 6820
ON Axon density ([1]; 14 days treatment): 569 ± 23
density of large, medium and small caliber optic nerve axons ([1]; 28 day treatment): significant increase in the density of large, and particularly medium and small caliber optic nerve axons
% surviving RGCs with ON axons ([1]; 28 days treatment): 81.4%
ON head area (% sham) ([1]; 28 days treatment): 95%
increased ON axon density ([1]; 28 days treatment): 5.0 X
ON axon Count ([1]; 28 days treatment): 22,861
ON Axon density ([1]; 28 days treatment): 1526 ± 120
effect on optic nerve axons versus ganglion cell bodies ([1]; FIG. 5): greater effect on optic nerve axons than ganglion cell bodies
protection of optic nerve axons ([1]; first 14 days after transection): 5.3%
preservation of optic nerve axons in the proximal stump ([1]; following optic nerve transection, FIG. 12): preserves optic nerve axons in the proximal stump
Ki [2]: 7.5 nM
repair and regeneration in the central and peripheral nervous systems [3]: promote repair and regeneration in the central and peripheral nervous systems
Clearance [4]: 3.8 µL/min
peripheral nerve regeneration [5]: enhance peripheral nerve regeneration
protection of the vulnerable ganglion cell population [6]: noticeable protection of a large proportion of the vulnerable ganglion cell population
